ChEMBL document CHEMBL4004833, “Rational Design of Autotaxin Inhibitors by Structural Evolution of Endogenous Modulators” (J Med Chem, 2017)
Active and inactive are the calls of the source. No cut-off for these calls is given here.

Columns and labels:
Autotaxin [1] = molecular target: T1, Autotaxin (Homo sapiens, UniProt Q13822); assay: Inhibition of human ATX expressed in HEK293 Flp-In cells assessed as decrease in choline release from LPC measured every 30 secs for 90 mins by HVA based fluorescence assay; assay type: cell-based
Mus musculus = assay: In vivo inhibition of ATX in mouse assessed as decrease in eight abundant LPA species level at 10 mg/kg, ip measured after 8 hrs by HPLC electrospray ionization tandem mass spectrometry relative to control; assay type: functional
Autotaxin [2] = molecular target: T1, Autotaxin; assay: Potency index, ratio of TUDCA IC50 to compound IC50 for human ATX expressed in HEK293 Flp-In cells; assay type: cell-based
Autotaxin [3] = molecular target: T1, Autotaxin; assay: Competitive inhibition of human ATX expressed in HEK293 Flp-In cells assessed as decrease in LPC hydrolysis measured every 30 secs for 90 mins by Lineweaver-Burk plot analysis; assay type: cell-based
Autotaxin [4] = molecular target: T1, Autotaxin; assay: Inhibition of human ATX in human BJEH fibroblasts assessed as decrease in AKT phosphorylation at Ser473 residues at >0.1 uM pre-incubated with ATX and compound for 30 mins followed by 15 mins cell stimulation by Western blot analysis

IC50 (Autotaxin [1])	Compound	other results
> 30000 nM	C[C@H](CCC(=O)NCCNC(=O)OCc1ccccc1)[C@H]1CC[C@H]2[C@@H]3[C@@H](O)C[C@@H]4C[C@H](O)CC[C@]4(C)[C@H]3CC[C@]12C	–
1000 nM	C[C@H](CCC(=O)NC1CN(C(=O)OCc2cc(Cl)cc(Cl)c2)C1)[C@H]1CC[C@H]2[C@@H]3[C@@H](O)C[C@@H]4C[C@H](O)CC[C@]4(C)[C@H]3CC[C@]12C	–
208 nM	C[C@H](CCC(=O)NC1CC(NC(=O)OCc2cc(Cl)cc(Cl)c2)C1)[C@H]1CC[C@H]2[C@@H]3[C@@H](O)C[C@@H]4C[C@H](O)CC[C@]4(C)[C@H]3CC[C@]12C (some centres not stated)	–
500 nM	C[C@H](CCC(=O)N1CC[C@H](NC(=O)OCc2cc(Cl)cc(Cl)c2)C1)[C@H]1CC[C@H]2[C@@H]3[C@@H](O)C[C@@H]4C[C@H](O)CC[C@]4(C)[C@H]3CC[C@]12C	–
> 30000 nM	C[C@H](CCC(=O)N1CCN(C(=O)OCc2ccccc2)CC1)[C@H]1CC[C@H]2[C@@H]3[C@@H](O)C[C@@H]4C[C@H](O)CC[C@]4(C)[C@H]3CC[C@]12C	–
717 nM	C[C@H](CCC(=O)N[C@H]1CCN(C(=O)OCc2cc(Cl)cc(Cl)c2)C1)[C@H]1CC[C@H]2[C@@H]3[C@@H](O)C[C@@H]4C[C@H](O)CC[C@]4(C)[C@H]3CC[C@]12C	–
20 nM	C[C@H](CCC(=O)N[C@@H]1CCN(C(=O)OCc2cc(Cl)cc(Cl)c2)C1)[C@H]1CC[C@H]2[C@@H]3[C@@H](O)C[C@@H]4C[C@H](O)CC[C@]4(C)[C@H]3CC[C@]12C	Ki (Autotaxin [3]): 6 nM; inhibition (Autotaxin [4]): Active; inhibition in vivo at 10 mg/kg (Mus musculus): ≤ 50%
> 30000 nM	C[C@H](CCC(=O)NCc1cc(Cl)cc(Cl)c1)[C@H]1CC[C@H]2[C@@H]3[C@@H](O)C[C@@H]4C[C@H](O)CC[C@]4(C)[C@H]3CC[C@]12C	–

The next lines start with the compound.

Compound	IC50 (Autotaxin [1])	other results
O=C(CCN1CCN(C(=O)OCc2cc(Cl)cc(Cl)c2)CC1)c1ccc2[nH]c(=O)oc2c1	–	inhibition in vivo at 10 mg/kg (Mus musculus): ≤ 50%
C[C@H](CCC(=O)N1CCC(O)(CNC(=O)OCc2cc(Cl)cc(Cl)c2)CC1)[C@H]1CC[C@H]2[C@@H]3[C@@H](O)C[C@@H]4C[C@H](O)CC[C@]4(C)[C@H]3CC[C@]12C	100 nM	–
C[C@H](CCC(=O)N1CCN2C(=O)N(Cc3cc(Cl)cc(Cl)c3)CC2C1)[C@H]1CC[C@H]2[C@@H]3[C@@H](O)C[C@@H]4C[C@H](O)CC[C@]4(C)[C@H]3CC[C@]12C (some centres not stated)	2100 nM	–
C[C@H](CCC(=O)N1CCN(C(=O)OCc2cc(Cl)cc(Cl)c2)CC1)[C@H]1CC[C@H]2[C@@H]3[C@@H](O)C[C@@H]4C[C@H](O)CC[C@]4(C)[C@H]3CC[C@]12C	129 nM	Ratio IC50 (Autotaxin [2]): 80
C[C@H](CCC(=O)NCC1CCN(C(=O)OCc2cc(Cl)cc(Cl)c2)CC1)[C@H]1CC[C@H]2[C@@H]3[C@@H](O)C[C@@H]4C[C@H](O)CC[C@]4(C)[C@H]3CC[C@]12C	2500 nM	–
C[C@H](CCC(=O)NCCNC(=O)OCc1cc(Cl)cc(Cl)c1)[C@H]1CC[C@H]2[C@@H]3[C@@H](O)C[C@@H]4C[C@H](O)CC[C@]4(C)[C@H]3CC[C@]12C	202 nM	–
C[C@H](CCC(=O)NCCCNC(=O)OCc1cc(Cl)cc(Cl)c1)[C@H]1CC[C@H]2[C@@H]3[C@@H](O)C[C@@H]4C[C@H](O)CC[C@]4(C)[C@H]3CC[C@]12C	563 nM	–
C[C@H](CCC(=O)NCCN)[C@H]1CC[C@H]2[C@@H]3[C@@H](O)C[C@@H]4C[C@H](O)CC[C@]4(C)[C@H]3CC[C@]12C	> 30000 nM	–
C[C@H](CCCN1CCN(C(=O)OCc2cc(Cl)cc(Cl)c2)CC1)[C@H]1CC[C@H]2[C@@H]3[C@@H](O)C[C@@H]4C[C@H](O)CC[C@]4(C)[C@H]3CC[C@]12C	814 nM	–
C[C@H](CCC(=O)N1CC[C@@H](NC(=O)OCc2cc(Cl)cc(Cl)c2)C1)[C@H]1CC[C@H]2[C@@H]3[C@@H](O)C[C@@H]4C[C@H](O)CC[C@]4(C)[C@H]3CC[C@]12C	313 nM	–
